Data from US11702422B2, “Imidazopyridazines as modulators of IL-17” (Janssen Pharmaceutica NV, priority 2020, dated 2023).

How the values were obtained:
[1] = target: IL-17A(FLAG-Tagged): IL-17RA(His-Tagged) (Homo sapiens, UniProt Q16552, K93Q); test: IL-17A(FLAG-Tagged): IL-17RA(His-Tagged) Binding Disruption Eu-HTRF Assay; settings: IL-17A/IL-17RA binding disruption, simple average if tested more than once
In short: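 IC50 comes from a one-site competition fit of the HTRF 665/620 nm ratio. Compound dilutions (2-fold, 22 points) were held 1 h rt with FLAG-tagged IL-17A dimer, then His-tagged IL-17RA plus Eu-cryptate anti-FLAG and D2 anti-His antibodies were added for 2 h rt.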

[2] = system: IL-17A-induced G-CSF production in human normal keratinocyte (NHK); test: NHK Assay: IL-17A-induced G-CSF production in human normal keratinocytes; type: cell-based; settings: 24 h, adult normal human keratinocytes, IL-17A 5 ng/mL, simple average if tested more than once
In short: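 Compound is first combined with recombinant human IL-17A for 1 h at rt, and the mix is added to adult normal human keratinocytes so that IL-17A is 5 ng/mL. After 24 h at 37° C in 5% FBS, G-CSF released into the medium is read by HTRF and IC50 derived.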

UniProt Q16552, sequence (Q16552 with tags, fused parts or gaps K93Q): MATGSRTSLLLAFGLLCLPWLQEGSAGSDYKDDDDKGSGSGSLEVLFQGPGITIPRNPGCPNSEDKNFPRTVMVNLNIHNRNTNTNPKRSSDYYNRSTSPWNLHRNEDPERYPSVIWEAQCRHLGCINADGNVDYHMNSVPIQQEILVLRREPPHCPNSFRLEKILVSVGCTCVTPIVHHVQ

Row | Compound | IC50 [1] | IC50 ([2]; Homo sapiens, Keratinocyte) | IC50 [2]
1 | O=C(CC1CC(F)(F)C1)NC(CC(F)F)c1cnn2cc([C@@H](NC(=O)c3nonc3C3CC3)C3CCC(F)(F)CC3)nc2c1 (single isomer, unassigned) [Example 400, 4-Cyclopropyl-N—((S)-(7-((R*)-1-(2-(3,3-difluorocyclobutyl)acetamido)-3,3-difluoropropyl)imidazo[1,2-b]pyridazin-2-yl)(4,4-difluorocyclohexyl)methyl)-1,2,5-oxadiazole-3-carboxamide] | 49 nM | 35 nM | 
2 | O=C(CC1CC(F)(F)C1)N[C@@H](c1cnn2cc([C@@H](NC(=O)c3nonc3C(O)C3CC3)C3CCC(F)(F)CC3)nc2c1)C1CC1 (single isomer, unassigned) [Example 401, N—((S)-(7-((R)-Cyclopropyl(2-(3,3-difluorocyclobutyl)acetamido)methyl)imidazo[1,2-b]pyridazin-2-yl)(4,4-difluorocyclohexyl)methyl)-4-((R*)-cyclopropyl(hydroxy)methyl)-1,2,5-oxadiazole-3-carboxamide] | 150 nM | 57 nM | 
3 | O=C(CC1CC(F)(F)C1)N[C@@H](c1cnn2cc([C@@H](NC(=O)c3nonc3C(O)C3CC3)C3CCC(F)(F)CC3)nc2c1)C1CC1 (single isomer, unassigned) [Example 402, N—((S)-(7-((R)-Cyclopropyl(2-(3,3-difluorocyclobutyl)acetamido)methyl)imidazo[1,2-b]pyridazin-2-yl)(4,4-difluorocyclohexyl)methyl)-4-((S*)-cyclopropyl(hydroxy)methyl)-1,2,5-oxadiazole-3-carboxamide] | 110 nM |  | 110 nM
4 | O=C(CC1CC(F)(F)C1)NC(c1cnn2cc([C@@H](NC(=O)c3nonc3C3CC3)C3CCC(F)(F)CC3)nc2c1)C(F)(F)F (single isomer, unassigned) [Example 421, 4-Cyclopropyl-N—((S)-(7-((S*)-1-(2-(3,3-difluorocyclobutyl)acetamido)-2,2,2-trifluoroethyl)imidazo[1,2-b]pyridazin-2-yl)(4,4-difluorocyclohexyl)methyl)-1,2,5-oxadiazole-3-carboxamide] | 98 nM | 43 nM | 
5 | CC(C)n1nccc1C(=O)N[C@H](c1cn2ncc(C(NC(=O)CC3CC(F)(F)C3)C(F)(F)F)cc2n1)C1CCC(F)(F)CC1 (single isomer, unassigned) [Example 422, N—((S)-(7-((S*)-1-(2-(3,3-Difluorocyclobutyl)acetamido)-2,2,2-trifluoroethyl)imidazo[1,2-b]pyridazin-2-yl)(4,4-difluorocyclohexyl)methyl)-1-isopropyl-1H-pyrazole-5-carboxamide] | 260 nM | 82 nM | 
6 | Cc1nonc1C(=O)N[C@H](c1cn2ncc(C(NC(=O)CC3CC(F)(F)C3)C3(C#N)CC3)cc2n1)C1CCC(F)(F)CC1 (single isomer, unassigned) [Example 423, N—((S)-(7-((S*)-(1-Cyanocyclopropyl)(2-(3,3-difluorocyclobutyl)acetamido)methyl)imidazo[1,2-b]pyridazin-2-yl)(4,4-difluorocyclohexyl)methyl)-4-methyl-1,2,5-oxadiazole-3-carboxamide] | 78 nM | 130 nM | 
7 | N#CC1(C(NC(=O)CC2CC(F)(F)C2)c2cnn3cc([C@@H](NC(=O)c4nonc4C4CC4)C4CCC(F)(F)CC4)nc3c2)CC1 (single isomer, unassigned) [Example 424, N—((S)-(7-((S*)-(1-Cyanocyclopropyl)(2-(3,3-difluorocyclobutyl)acetamido)methyl)imidazo[1,2-b]pyridazin-2-yl)(4,4-difluorocyclohexyl)methyl)-4-cyclopropyl-1,2,5-oxadiazole-3-carboxamide] | 47 nM |  | 40 nM
8 | N#CC1(C(NC(=O)CC2CC(F)(F)C2)c2cnn3cc([C@@H](NC(=O)c4nonc4OCC(F)F)C4CCC(F)(F)CC4)nc3c2)CC1 (single isomer, unassigned) [Example 425, N—((S)-(7-((S*)-(1-Cyanocyclopropyl)(2-(3,3-difluorocyclobutyl)acetamido)methyl)imidazo[1,2-b]pyridazin-2-yl)(4,4-difluorocyclohexyl)methyl)-4-(2,2-difluoroethoxy)-1,2,5-oxadiazole-3-carboxamide] | 99 nM |  | 20 nM
9 | CC(C)n1nccc1C(=O)N[C@H](c1cn2ncc(C(NC(=O)CC3CC(F)(F)C3)C3(C#N)CC3)cc2n1)C1CCC(F)(F)CC1 (single isomer, unassigned) [Example 426, N—((S)-(7-((S*)-(1-Cyanocyclopropyl)(2-(3,3-difluorocyclobutyl)acetamido)methyl)imidazo[1,2-b]pyridazin-2-yl)(4,4-difluorocyclohexyl)methyl)-1-isopropyl-1H-pyrazole-5-carboxamide] | 340 nM |  | 100 nM
10 | Cc1nonc1C(=O)N[C@H](c1cn2ncc(C(NC(=O)CC3(C(F)(F)F)CC3)C3(C#N)CC3)cc2n1)C1CCC(F)(F)CC1 (single isomer, unassigned) [Example 427, N—((S)-(7-((S*)-(1-Cyanocyclopropyl)(2-(1-(trifluoromethyl)cyclopropyl)acetamido)methyl)imidazo[1,2-b]pyridazin-2-yl)(4,4-difluorocyclohexyl)methyl)-4-methyl-1,2,5-oxadiazole-3-carboxamide] | 100 nM |  | 370 nM
11 | CC(C)n1nccc1C(=O)N[C@H](c1cn2ncc(C(NC(=O)CC3(C(F)(F)F)CC3)C3(C#N)CC3)cc2n1)C1CCC(F)(F)CC1 (single isomer, unassigned) [Example 428, N—((S)-(7-((S*)-(1-Cyanocyclopropyl)(2-(1-(trifluoromethyl)cyclopropyl)acetamido)methyl)imidazo[1,2-b]pyridazin-2-yl)(4,4-difluorocyclohexyl)methyl)-1-isopropyl-1H-pyrazole-5-carboxamide] | 370 nM |  | 120 nM
12 | N#CC1(C(NC(=O)CC2CC(F)(F)C2)c2cnn3cc([C@@H](NC(=O)c4nonc4C4CC4)C4CCC(F)(F)CC4)nc3c2)CC1 (single isomer, unassigned) [Example 429, N—((S)-(7-((R*)-(1-Cyanocyclopropyl)(2-(3,3-difluorocyclobutyl)acetamido)methyl)imidazo[1,2-b]pyridazin-2-yl)(4,4-difluorocyclohexyl)methyl)-4-cyclopropyl-1,2,5-oxadiazole-3-carboxamide] | 2000 nM |  | > 20000 nM
13 | N#CC1(C(NC(=O)CC2CC(F)(F)C2)c2cnn3cc([C@@H](NC(=O)c4nonc4OCC(F)F)C4CCC(F)(F)CC4)nc3c2)CC1 (single isomer, unassigned) [Example 430, N—((S)-(7-((R*)-(1-Cyanocyclopropyl)(2-(3,3-difluorocyclobutyl)acetamido)methyl)imidazo[1,2-b]pyridazin-2-yl)(4,4-difluorocyclohexyl)methyl)-4-(2,2-difluoroethoxy)-1,2,5-oxadiazole-3-carboxamide] | 1600 nM |  | 12000 nM
14 | CC(C)n1nccc1C(=O)N[C@H](c1cn2ncc(C(NC(=O)CC3CC(F)(F)C3)C3(C#N)CC3)cc2n1)C1CCC(F)(F)CC1 (single isomer, unassigned) [Example 431, N—((S)-(7-((R*)-(1-Cyanocyclopropyl)(2-(3,3-difluorocyclobutyl)acetamido)methyl)imidazo[1,2-b]pyridazin-2-yl)(4,4-difluorocyclohexyl)methyl)-1-isopropyl-1H-pyrazole-5-carboxamide] | 3800 nM |  | > 20000 nM
15 | Cc1nonc1C(=O)N[C@H](c1cn2ncc(C(NC(=O)CC3(C(F)(F)F)CC3)C3(C#N)CC3)cc2n1)C1CCC(F)(F)CC1 (single isomer, unassigned) [Example 432, N—((S)-(7-((R*)-(1-Cyanocyclopropyl)(2-(1-(trifluoromethyl)cyclopropyl)acetamido)methyl)imidazo[1,2-b]pyridazin-2-yl)(4,4-difluorocyclohexyl)methyl)-4-methyl-1,2,5-oxadiazole-3-carboxamide] | 3700 nM |  | > 20000 nM
16 | N#CC1(C(NC(=O)CC2(C(F)(F)F)CC2)c2cnn3cc([C@@H](NC(=O)c4nonc4C4CC4)C4CCC(F)(F)CC4)nc3c2)CC1 (single isomer, unassigned) [Example 433, N—((S)-(7-((R*)-(1-Cyanocyclopropyl)(2-(1-(trifluoromethyl)cyclopropyl)acetamido)methyl)imidazo[1,2-b]pyridazin-2-yl)(4,4-difluorocyclohexyl)methyl)-4-cyclopropyl-1,2,5-oxadiazole-3-carboxamide] | 1300 nM | > 20000 nM | 
17 | CC(C)n1nccc1C(=O)N[C@H](c1cn2ncc(C(NC(=O)CC3(C(F)(F)F)CC3)C3(C#N)CC3)cc2n1)C1CCC(F)(F)CC1 (single isomer, unassigned) [Example 434, N—((S)-(7-((R*)-(1-Cyanocyclopropyl)(2-(1-(trifluoromethyl)cyclopropyl)acetamido)methyl)imidazo[1,2-b]pyridazin-2-yl)(4,4-difluorocyclohexyl)methyl)-1-isopropyl-1H-pyrazole-5-carboxamide] | 3300 nM |  | > 20000 nM
18 | Cc1nonc1C(=O)N[C@H](c1cn2ncc(C(NC(=O)C(F)(F)CC3CC3)C3(C#N)CC3)cc2n1)C1CCC(F)(F)CC1 (single isomer, unassigned) [Example 435, N—((S)-(7-((R*)-(1-Cyanocyclopropyl)(3-cyclopropyl-2,2-difluoropropanamido)methyl)imidazo[1,2-b]pyridazin-2-yl)(4,4-difluorocyclohexyl)methyl)-4-methyl-1,2,5-oxadiazole-3-carboxamide] | 3800 nM | > 20000 nM | 
